Values quoted from earlier work as cited in US20250295594A1, “ENTERAL SUSTAINED-RELEASE SUGAR ALCOHOL ADDITIVE AND PREPARATION METHOD AND APPLICATION THEREOF” (ZHEJIANG HUAKANG PHARMACEUTICAL CO., LTD., priority 2020, published 2025).

Settings: existing experimental data, unformulated sugar / sugar alcohol

Compound: O=C[C@H](O)[C@@H](O)[C@@H](O)CO [arabinose, L-arabinose]
- absorption rate of the small intestine: 70%

Compound: OC[C@@H](O)[C@H](O)[C@@H](O)CO [xylitol]
- absorption rate of the small intestine: 60%
